Results from patent publication US3993771A (priority 1974, dated 1976).
Values after ≈ are worked out from the molar mass of the structure shown. Read-outs that look alike come from different tables or passages of the source.

What was measured:
[1] = test system: Pyricularia oryzae; type: in vivo; conditions: preventive
[2] = test system: rice plants (var.: Kinki No. 33); conditions: preventive test
[3] = test system: Pyricularia oryzae; type: in vivo
[4] = test system: rice plants (var.: Kinki No. 33)
[5] = test system: Pyricularia oryzae; assay: microbe, parasite or virus in culture; type: cell-based; conditions: for Diameter of mycelium / Diameter of mycelium (symbol): 27° C., 2 weeks; for Diameter of mycelium: untreated 63.5 m/m; for MIC: Pyricularia oryzae, 336 h, read-out: MIC (minimum inhibitory concentration on mycelial growth)
[6] = concentration of active ingredient 100 ppm
[7] = curative, concentration of active ingredient 20 ppm
[8] = curative, concentration of active ingredient 200 ppm
[9] = concentration of active ingredient 500 ppm
[10] = curative, concentration of active ingredient 500 ppm

| SMILES | Disease control [1, 6] [%] | Disease severity [1, 6] [%] | Phytotoxicity ([2]; 100 ppm) | Diameter of mycelium ([5]; 2 ppm) [m/m] | Diameter of mycelium ([5]; 10 ppm) [m/m] | Diameter of mycelium ([5]; 50 ppm) [m/m] | Diameter of mycelium ([5]; 250 ppm) [m/m] | MIC [5] [µg/mL] | Disease control [3, 8] [%] | Disease severity [3, 8] [%] | also measured |
| --- | --- | --- | --- | --- | --- | --- | --- | --- | --- | --- | --- |
| CC(C)OP(=O)(OC(C)C)SCc1ccccc1 [Commercial fungicide A, 0,0-diisopropyl-S-benzylphosphorothioate, reference compound] | 92 | 7.5 | no |  |  |  |  |  |  |  |  |
| C[C@H]1O[C@H](OC2[C@@H](O)[C@@H](O)C(O)[C@H](O)[C@H]2O)[C@@H](N)C[C@@H]1N=C(N)C(=O)O.Cl (stereo partly drawn) [Commercial fungicide B, Kasugamycin hydrochloride, reference compound] |  |  |  |  |  |  |  |  |  |  | Disease control [3, 7]: 82%; Disease severity [3, 7]: 17.5% |
| CCOP(=O)(Sc1ccccc1)Sc1ccccc1 [Commercial fungicide C, O-ethyl-S,S-diphenyl-phosphorodithiolate, reference compound] |  |  |  |  |  |  |  |  |  |  | Phytotoxicity ([4]; in vivo): no; Disease control ([3]; in vivo): 92%; Disease severity ([3]; in vivo): 7.5% |
| Cc1ccccc1C=C1CCOC1=O [Compound 1] | 100 | 0 | no | 0 | 0 | 0 | 0 | < 2 | 99 | 1.3 | Phytotoxicity ([4]; curative test, 200 ppm): no |
| O=C1OCCC1=Cc1c(Cl)cccc1Cl [Compound 2, α-(2,6-dichlorobenzylidene)-γ-butyrolactone] | 100 | 0 | no | 0 | 0 | 0 | 0 | < 2 |  |  |  |
| CC1CC(=Cc2c(F)cccc2Cl)C(=O)O1 (stereo not drawn) [Compound 3, α-(2-chloro-6-fluorobenzylidene)-γ-valerolactone] | 100 | 0 | no | 0 | 0 | 0 | 0 | < 2 | 100 | 0 |  |
| Cc1cccc(C)c1C=C1CCOC1=O [Compound 4] | 99 | 1.3 | no | 0 | 0 | 0 | 0 | < 2 |  |  |  |
| Cc1ccccc1C=C1CC(C)OC1=O (stereo not drawn) [Compound 5] | 99 | 1.3 | no |  | 0 | 0 | 0 | ~2 (≈ 9.89 µM) | 100 | 0 | Diameter of mycelium (symbol) ([5]; 2 ppm): ± |
| CC1CC(=Cc2ccccc2Cl)C(=O)O1 (stereo not drawn) [Compound 6, α-(o-chlorobenzylidene)-γ-valerolactone] | 100 | 0 | no | 0 | 0 | 0 | 0 | < 2 | 100 | 0 |  |
| CC1CC(=Cc2ccccc2Br)C(=O)O1 (stereo not drawn) [Compound 7] | 100 | 0 | no | 0 | 0 | 0 | 0 | < 2 | 100 | 0 |  |
| CC1CC(=Cc2c(Cl)cccc2Cl)C(=O)O1 (stereo not drawn) [Compound 8] | 100 | 0 | no | 0 | 0 | 0 | 0 | < 2 |  |  |  |
| CCC1CC(=Cc2ccccc2Cl)C(=O)O1 (stereo not drawn) [Compound 9, α-(o-chlorobenzylidene)-γ-ethyl-γ-butyrolactone] | 99 | 1.3 | no |  | 0 | 0 | 0 | ~2 (≈ 8.45 µM) | 99 | 1.3 | Diameter of mycelium (symbol) ([5]; 2 ppm): ± |
| CC(C)(C)C1CC(=Cc2ccccc2Cl)C(=O)O1 (stereo not drawn) [Compound 10] | 99 | 1.3 | no |  | 0 | 0 | 0 | ~2 (≈ 7.55 µM) |  |  | Diameter of mycelium (symbol) ([5]; 2 ppm): ± |
| CC1(C)CC(=Cc2ccccc2Cl)C(=O)O1 [Compound 11] | 99 | 1.3 | no |  | 0 | 0 | 0 | ~2 (≈ 8.45 µM) |  |  | Diameter of mycelium (symbol) ([5]; 2 ppm): ± |
| Cc1ccccc1C=C1CC(C)(C)OC1=O [Compound 12, α-(o-methylbenzylidene)-γ-dimethyl-γ-butyrolactone] | 97 | 2.5 | no | 2.0 | 0 | 0 | 0 | 2 (≈ 9.25 µM) |  |  |  |
| CC1CC(=Cc2ccccc2C(C)C)C(=O)O1 (stereo not drawn) [Compound 13] | 100 | 0 | no |  | 0 | 0 | 0 | ~2 (≈ 8.68 µM) | 99 | 1.3 | Diameter of mycelium (symbol) ([5]; 2 ppm): ± |
| CCc1ccccc1C=C1CC(C)OC1=O (stereo not drawn) [Compound 14] | 100 | 0 | no |  | 0 | 0 | 0 | ~2 (≈ 9.25 µM) | 100 | 0 | Diameter of mycelium (symbol) ([5]; 2 ppm): ± |
| C=C1CCOC1=O [Control (i), reference compound] |  |  |  |  |  |  |  |  |  |  | Disease control [1, 9]: 0%; Disease severity [1, 9]: 100%; Phytotoxicity ([2]; 500 ppm): no |
| O=C1OCCC1=Cc1ccccc1 [Control (ii), reference compound] |  |  |  | 68.5 | 49.0 | 35.5 |  | ~250 (≈ 1440 µM) |  |  | Disease control [1, 9]: 7%; Disease severity [1, 9]: 93.8%; Diameter of mycelium (symbol) ([5]; 250 ppm): ±; Phytotoxicity ([2]; 500 ppm): no; Disease control [3, 10]: 0%; Disease severity [3, 10]: 97.5% |
| O=C1OCCC1=Cc1ccccc1O [Control (iii), reference compound] |  |  |  | 65.0 | 55.0 | 40.0 | 11.0 | > 250 |  |  | Disease control [1, 9]: 10%; Disease severity [1, 9]: 90.0%; Phytotoxicity ([2]; 500 ppm): no; Disease control [3, 10]: 0%; Disease severity [3, 10]: 97.5% |
| COc1ccccc1C=C1CCOC1=O [Control (iv), reference compound] |  |  |  | 63.0 | 48.5 | 31.5 |  | ~250 (≈ 1220 µM) |  |  | Disease control [1, 9]: 2%; Disease severity [1, 9]: 97.5%; Diameter of mycelium (symbol) ([5]; 250 ppm): ±; Phytotoxicity ([2]; 500 ppm): no; Phytotoxicity ([4]; curative test, 500 ppm): no; Disease control [3, 10]: 0%; Disease severity [3, 10]: 100.0% |
| CC1CC(=Cc2ccccc2)C(=O)O1 (stereo not drawn) [Control (ix), reference compound] |  |  |  |  |  |  |  |  |  |  | Disease control [1, 9]: 10%; Disease severity [1, 9]: 90.0%; Phytotoxicity ([2]; 500 ppm): no |
| O=C1OCCC1=Cc1ccc([N+](=O)[O-])cc1 [Control (v), reference compound] |  |  |  | 69.5 | 58.5 | 43.0 | 30.5 | > 250 |  |  | Disease control [1, 9]: 0%; Disease severity [1, 9]: 100.0%; Phytotoxicity ([2]; 500 ppm): no |
| O=C1OCCC1=Cc1ccc(Cl)cc1 [Control (vi), reference compound] |  |  |  | 66.0 | 51.5 | 34.5 | 3.0 | 250 (≈ 1200 µM) |  |  | Disease control [1, 9]: 0%; Disease severity [1, 9]: 100.0%; Phytotoxicity ([2]; 500 ppm): no; Disease control [3, 10]: 0%; Disease severity [3, 10]: 100.0% |
